Results on 44 molecules are retold here after a melting point compilation (Tetko et al.).

`COc1cc(C)c(C=CC(C)=CC=CC(C)=CC(=O)O)c(C)c1C`: the melting point worked out at 228 °C.

`COC(=O)c1sc(SC)c(S(=O)(=O)C(C)C)c1I` showed a melting point of 193 to 195 °C.

`CCCCCCCCCCCCCCCC(=O)OCC(COP(=O)([O-])OCC[N+](C)(C)C)OC(=O)CCCCCCCCCCCCCCC` (centres undefined) gave a melting point of 229 to 230 °C. Consider `CC1CC=C/C1=N\Nc1ccc([N+](=O)[O-])cc1[N+](=O)[O-]` (centres undefined), for which the melting point was determined as 180 °C. `CC(OCC(=O)c1ccccc1)=C(C#N)c1ccccc1` came in with a melting point of 111 °C. As for `CC1=NN(CN2CCCCC2)C(=O)/C1=N\Nc1cccnc1`, the melting point came to 177 °C. In turn, `Nc1ncnc2[nH]nnc12` yielded a melting point of more than 300 °C. In the case of `O=[N+]([O-])c1cccc2cc[nH]c12` it was 95 to 98 °C; in that of `OC(c1ccccc1)(c1ccccc1)C1CCNCC1`, 160 °C. In the case of `Cc1n[nH]c(SCC#N)n1` it was 158 to 160 °C. In the case of `O=C(O)CCCc1ccc(F)cc1` it was 45 to 47 °C; in that of `Cc1nc(NC(=O)NS(=O)(=O)c2cccs2)nc(C)c1C`, 188 to 189 °C.

The molecule `O=Cc1ccccc1OC1CCOCC1` registered a melting point of 67 to 70 °C.

Consider `Nc1ccc2c(c1)COCO2`, for which the melting point worked out at 69 °C. In the case of `CC1=C(C)C2(C)C(C)=C(C)C12C` (centres undefined), the melting point amounted to 0.7 °C.

Molecule `N#Cc1c(F)c(F)cc(F)c1F` registered a melting point of 34 °C. On to `CC(=O)NC1=NC(=O)C(=Cc2coc3ccc(Br)cc3c2=O)N1C`, for which the melting point lay within 259 to 261 °C.

`c1ccc(P(c2ccccc2)P(c2ccccc2)c2ccccc2)cc1` gave a melting point of 120 to 122 °C. The result for `O=C1CCCCCCC1` reads 40.5 °C; that for `BrCc1nc2ccccc2s1`, 47 °C.

`COC(=O)c1ccc(Oc2cccnc2)o1` gave a melting point of 78 to 79 °C. `N#Cc1cc([N+](=O)[O-])ccc1-n1cccc1` displayed a melting point of 96 to 98 °C. `O=C1CCC(=O)N1CCO`: the melting point came to 60 °C. In turn, `CC(C)(Cl)CCC(C)(C)Cl` yielded a melting point of 67.5 °C.

The molecule `Fc1c(F)c(CCl)c(F)c(F)c1CCl` had a melting point of 77 to 78 °C. In the case of `O=C1C(=Cc2ccccc2)Cc2ccccc21` it was 110 °C.

`CC1(C)CC(=O)C2=C(C1)Nc1c(ccc3ccccc13)C2c1ccc(Cl)cc1Cl` (centres undefined) yielded a melting point of 222 °C. In the case of `CCCCCOC(=O)CCCC` it was -78.8 °C; in that of `O=C1COc2cccnc2N1`, 206 °C. `CC(C)(C=NO)NO` returned a melting point of 98 to 100 °C. The result for `CC1COC(=O)O1` (centres undefined) reads -48.8 °C. As to `O=[N+]([O-])c1cc(Cl)cnc1Cl`, the melting point fell in the range of 38 to 42 °C. In turn, `CCOC(=O)C1=C(C)NC(=O)NC1c1ccccc1[N+](=O)[O-]` (centres undefined) gave a melting point of 220 °C.

In the case of `Nc1cc(Cl)cnc1Br`, the melting point is 141 to 143 °C. For `O/N=C(/CC(NO)c1ccccc1)c1ccccc1` (centres undefined), the melting point is 141 °C. With `C1COCCOCCOCCO1`, the melting point was 16 °C. On to `c1cc2c3c(cccc3c1)-c1nccnc1-2`, for which the melting point worked out at 146 °C.

As for `CC(C)C1=C(O)C(=O)C2=C(C=CC3C(C)(C)CCCC23C)C1=O` (centres undefined), the melting point worked out at 167 °C. As to `Cc1cc(C(=O)O)n[nH]1`, the melting point lay within 241 to 242 °C.

Take `CCC(O)C(CC(C)N(C)C)(c1ccccc1)c1ccccc1` (centres undefined): the melting point is 127 °C. `Cc1ccccc1C1(C#N)Cc2ccccc2C(=O)O1` (centres undefined) yielded a melting point of 121 to 123 °C.

The molecule `CC(=O)OC1(C(C)=O)CCC2C3CC(C)C4=CC(=O)C=CC4(C)C3(F)C(O)CC21C` (centres undefined) yielded a melting point of 298 °C. In the case of `O=C(O)c1ccc(N2CCCC2)cc1` it was 230 °C; in that of `C#Cc1ccc(-c2cnco2)cc1`, 76 to 77 °C.
